Reference: patent US11014911B2, “CDK2 inhibitors” (Pfizer Inc., priority 2019, dated 2021)
pKi: −log10 of the molar value.

Assays:
[1] = target: CDK2/Cyclin E1 full length (Homo sapiens (Human), UniProt P24941); experiment: CDK2/Cyclin E1 full length mobility shift assay; format: biochemical
[2] = target: GSK3β (H350L) (Homo sapiens (Human), UniProt P49841); conditions: read-out: GSK3β Ki
Sequence of GSK3β (H350L) (P49841 whole entry, stated change not applied): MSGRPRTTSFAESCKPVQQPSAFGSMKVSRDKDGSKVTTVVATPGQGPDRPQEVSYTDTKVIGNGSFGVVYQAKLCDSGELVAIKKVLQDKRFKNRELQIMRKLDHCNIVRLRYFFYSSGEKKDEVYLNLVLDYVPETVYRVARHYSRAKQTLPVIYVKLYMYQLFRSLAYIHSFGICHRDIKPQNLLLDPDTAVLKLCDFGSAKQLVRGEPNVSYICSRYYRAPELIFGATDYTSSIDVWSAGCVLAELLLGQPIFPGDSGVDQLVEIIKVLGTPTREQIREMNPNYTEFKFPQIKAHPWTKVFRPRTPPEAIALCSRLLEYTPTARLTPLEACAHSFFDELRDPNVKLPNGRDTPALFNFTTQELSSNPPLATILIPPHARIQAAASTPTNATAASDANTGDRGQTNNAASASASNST
Experimental: The assay was initiated with the addition of ATP, following 15 minutes pre-incubation of enzyme and inhibitor at room temperature in the reaction mixture. The reaction was stopped after 30 minutes at room temperature by the addition of 50 μL of 80 mM EDTA.

Row | Compound | pKi [1] | pKi [2]
1 | COc1ccc(CC(=O)Nc2cc([C@H]3CC[C@@H](OC(=O)NC4(C)CC4)C3)[nH]n2)nc1 [Example 433, (1R,3S)-3-(3-{[(5-methoxypyridin-2-yl)acetyl]amino}-1H-pyrazol-5-yl)cyclopentyl (1-methylcyclopropyl)carbamate] | 9.30 | 7.77
2 | CC[C@H](C)NC(=O)O[C@@H]1CC[C@H](c2cc(NC(=O)Cc3cnccn3)n[nH]2)C1 [Example 325, (1R,3S)-3-{3-[(pyrazin-2-ylacetyl)amino]-1H-pyrazol-5-yl}cyclopentyl (2S)-butan-2-ylcarbamate] | 9.09 | 7.27
3 | CCNC(=O)O[C@@H]1CC[C@H](c2cc(NC(=O)Cc3ccc(OC)cc3)n[nH]2)C1 [Example 230, (1R,3S)-3-(3-{[(4-methoxyphenyl)acetyl]amino}-1H-pyrazol-5-yl)cyclopentyl ethylcarbamate] | 8.81 | 7.31
4 | CCC(C)(C)NC(=O)O[C@@H]1CC[C@H](c2cc(NC(=O)Cc3cnn(C)c3)n[nH]2)C1 [Example 61] | 9.96 | 7.37
5 | Cc1ncc(CC(=O)Nc2cc([C@@H]3CC[C@H](OC(=O)N[C@H]4CC[C@H](O)CC4)C3)[nH]n2)s1 [Example 551, (1S,3R)-3-(3-{[(2-methyl-1,3-thiazol-5-yl)acetyl]amino}-1H-pyrazol-5-yl)cyclopentyl (trans-4-hydroxycyclohexyl)carbamate] | 9.47 | 8.53
6 | COc1ccc(CC(=O)Nc2cc([C@@H]3CC[C@H](OC(=O)N[C@H]4CC[C@](C)(O)CC4)C3)[nH]n2)cc1 [Example 565, (1S,3R)-3-(3-{[(4-methoxyphenyl)acetyl]amino}-1H-pyrazol-5-yl)cyclopentyl (trans-4-hydroxy-4-methylcyclohexyl)carbamate] | 8.91 | 8.39
7 | CCCNC(=O)O[C@H]1CC[C@@H](c2cc(NC(=O)Cc3cc(C)no3)n[nH]2)C1 [Example 177, (1S,3R)-3-(3-{[(3-methyl-1,2-oxazol-5-yl)acetyl]amino}-1H-pyrazol-5-yl)cyclopentyl propylcarbamate] | 9.37 | 7.72
8 | Cc1ncc(CC(=O)Nc2cc([C@H]3CC[C@@H](OC(=O)N[C@@H]4CCC[C@@H]4C)C3)[nH]n2)s1 [Example 463, (1R,3S)-3-(3-{[(2-methyl-1,3-thiazol-5-yl)acetyl]amino}-1H-pyrazol-5-yl)cyclopentyl [(1R,2S)-2-methylcyclopentyl]carbamate] | 9.26 | 7.55
9 | CC[C@H](C)NC(=O)O[C@@H]1CC[C@H](c2cc(NC(=O)Cc3cnc(C)s3)n[nH]2)C1 [Example 33] | 9.77 | 7.58
10 | COc1ccc(CC(=O)Nc2cc([C@H]3CC[C@@H](OC(=O)N4C[C@@](C)(O)[C@@H]4C)C3)[nH]n2)cn1 [Example 627, (1R,3S)-3-(3-{[(6-methoxypyridin-3-yl)acetyl]amino}-1H-pyrazol-5-yl)cyclopentyl (2S,3R)-3-hydroxy-2,3-dimethylazetidine-1-carboxylate] | 9.29 | 8.56
11 | CCCNC(=O)O[C@@H]1CC[C@H](c2cc(NC(=O)Cc3ccnc(OC)c3)[nH]n2)C1 [Example 1, (1R,3S)-3-(3-{[(2-methoxypyridin-4-yl)acetyl]amino}-1H-pyrazol-5-yl)cyclopentyl propylcarbamate] | – | 7.58
12 | COc1ccc(CC(=O)Nc2cc([C@H]3CC[C@@H](OC(=O)N4CCC4(C)C)C3)[nH]n2)cn1 [Example 144] | 10.00 | 8.90
13 | CCc1nn2cc(CC(=O)Nc3cc([C@H]4CC[C@@H](OC(=O)N[C@@H](C)CC)C4)[nH]n3)nc2s1 [Example 367, (1R,3S)-3-(3-{[(2-ethylimidazo[2,1-b][1,3,4]thiadiazol-6-yl)acetyl]amino}-1H-pyrazol-5-yl)cyclopentyl (2S)-butan-2-ylcarbamate] | 9.57 | 7.63
14 | CC[C@H](C)NC(=O)O[C@@H]1CC[C@H](c2cc(NC(=O)Cc3cncn3C)n[nH]2)C1 [Example 329, (1R,3S)-3-(3-{[(1-methyl-1H-imidazol-5-yl)acetyl]amino}-1H-pyrazol-5-yl)cyclopentyl (2S)-butan-2-ylcarbamate] | 8.99 | 6.97
15 | CC[C@H](C)NC(=O)O[C@@H]1CC[C@H](c2cc(NC(=O)Cc3ccccc3S(C)(=O)=O)n[nH]2)C1 [Example 370, (1R,3S)-3-[3-({[2-(methylsulfonyl)phenyl]acetyl}amino)-1H-pyrazol-5-yl]cyclopentyl (2S)-butan-2-ylcarbamate] | – | 7.29
16 | CCCNC(=O)O[C@H]1CC[C@@H](c2cc(NC(=O)Cc3ccnc(OC)c3)n[nH]2)C1 [Example 19] | – | 7.68
17 | C[C@H]1CCCN1C(=O)O[C@@H]1CC[C@H](c2cc(NC(=O)Cc3ccn(C)n3)n[nH]2)C1 [Example 140] | – | 7.82
18 | COc1ccc(CC(=O)Nc2cc([C@@H]3CC[C@H](OC(=O)N4CCC4(C)C)C3)[nH]n2)cn1 [Example 145] | – | 9.02
19 | C[C@H]1CCCN1C(=O)O[C@@H]1CC[C@H](c2cc(NC(=O)Cc3ccn(C)n3)n[nH]2)C1 [Example 631, (1R,3S)-3-(3-{[(1-methyl-1H-pyrazol-3-yl)acetyl]amino}-1H-pyrazol-5-yl)cyclopentyl (2S)-2-methylpyrrolidine-1-carboxylate] | – | 7.93

Row | Compound | pKi [1] | pKi [2]
20 | Cc1cc(CC(=O)Nc2cc([C@H]3CC[C@@H](OC(=O)N4[C@H](C)C[C@@H]4C)C3)[nH]n2)on1 [Example 607, (1R,3S)-3-(3-{[(3-methyl-1,2-oxazol-5-yl)acetyl]amino}-1H-pyrazol-5-yl)cyclopentyl (2R,4S)-2,4-dimethylazetidine-1-carboxylate] | 8.72 | –
21 | COc1cnc(CC(=O)Nc2cc([C@H]3CC[C@@H](OC(=O)NC(C)CC(F)(F)F)C3)[nH]n2)cn1 (single isomer, unassigned) [Example 67] | 8.82 | –
22 | CC(CC(F)(F)F)NC(=O)O[C@@H]1CC[C@H](c2cc(NC(=O)c3ccnn3CCN(C)C)[nH]n2)C1 (single isomer, unassigned) [Example 409] | 8.38 | –
23 | COCc1cc(C(=O)Nc2cc([C@H]3CC[C@@H](OC(=O)NC4(C)CCOC4)C3)[nH]n2)n(C)n1 (single isomer, unassigned) [Example 488] | 8.85 | –
24 | CCCNC(=O)O[C@@H]1CC[C@H](c2cc(NC(=O)Cc3ccccc3S(N)(=O)=O)n[nH]2)C1 [Example 204, (1R,3S)-3-(3-{[(2-sulfamoylphenyl)acetyl]-amino}-1H-pyrazol-5-yl)cyclopentyl propylcarbamate] | 8.95 | –
25 | COC[C@H](C)NC(=O)O[C@@H]1CC[C@H](c2cc(NC(=O)Cc3ncc(OC)s3)n[nH]2)C1 [Example 522, (1R,3S)-3-(3-{[(5-methoxy-1,3-thiazol-2-yl)acetyl]amino}-1H-pyrazol-5-yl)cyclopentyl [(2S)-1-methoxypropan-2-yl]carbamate] | 8.52 | –
26 | CCNC(=O)O[C@@H]1CC[C@H](c2cc(NC(=O)Cc3cccc4scnc34)n[nH]2)C1 [Example 234, (1R,3S)-3-{3-[(1,3-benzothiazol-4-ylacetyl)amino]-1H-pyrazol-5-yl}cyclopentyl ethylcarbamate] | 8.39 | –
27 | CC[C@H](C)NC(=O)O[C@@H]1CC[C@H](c2cc(NC(=O)Cc3cn(C)nn3)n[nH]2)C1 [Example 331, (1R,3S)-3-(3-{[(1-methyl-1H-1,2,3-triazol-4-yl)acetyl]amino}-1H-pyrazol-5-yl)cyclopentyl (2S)-butan-2-ylcarbamate] | 8.83 | –
28 | Cc1cc(CC(=O)Nc2cc([C@@H]3CC[C@H](OC(=O)NC(C)C)C3)[nH]n2)no1 [Example 268, (1S,3R)-3-(3-{[(5-methyl-1,2-oxazol-3-yl)acetyl]amino}-1H-pyrazol-5-yl)cyclopentyl propan-2-ylcarbamate] | 9.01 | –
29 | Cc1cc(CC(=O)Nc2cc([C@H]3CC[C@@H](OC(=O)N4C[C@@](C)(O)[C@@H]4C)C3)[nH]n2)on1 [Example 622, (1R,3S)-3-(3-{[(3-methyl-1,2-oxazol-5-yl)acetyl]amino}-1H-pyrazol-5-yl)cyclopentyl (2S,3R)-3-hydroxy-2,3-dimethylazetidine-1-carboxylate] | 8.40 | –
30 | O=C(Cc1cc(F)cc(F)c1)Nc1cc([C@@H]2CC[C@H](OC(=O)NC[C@H]3C[C@@H](O)C3)C2)[nH]n1 [Example 575, (1S,3R)-3-(3-{[(3,5-difluorophenyl)acetyl]amino}-1H-pyrazol-5-yl)cyclopentyl [(cis-3-hydroxycyclobutyl)methyl] carbamate] | 8.64 | –
31 | CC(CO)CNC(=O)O[C@@H]1CC[C@H](c2cc(NC(=O)Cc3cc(F)cc(F)c3)n[nH]2)C1 (single isomer, unassigned) [Example 539] | 8.63 | –
32 | CC[C@H](C)NC(=O)O[C@@H]1CC[C@H](c2cc(NC(=O)c3cnn(C)c3)n[nH]2)C1 [Example 320, (1R,3S)-3-(3-{[(1-methyl-1H-pyrazol-4-yl)carbonyl]amino}-1H-pyrazol-5-yl)cyclopentyl (2S)-butan-2-ylcarbamate] | 8.53 | –
33 | COCCn1nccc1C(=O)Nc1cc([C@H]2CC[C@@H](OC(=O)NC(C)CC(F)(F)F)C2)[nH]n1 (single isomer, unassigned) [Example 87] | 8.88 | –
34 | COc1ccc(CC(=O)Nc2cc([C@H]3CC[C@@H](OC(=O)NC4(C)CCOC4)C3)[nH]n2)cc1 (single isomer, unassigned) [Example 483] | 9.49 | –
35 | CCCNC(=O)O[C@@H]1CC[C@H](c2cc(NC(=O)Cc3ccc(C)cc3S(C)(=O)=O)n[nH]2)C1 [Example 207, (1R,3S)-3-[3-({[4-methyl-2-(methylsulfonyl)phenyl]acetyl}amino)-1H-pyrazol-5-yl]cyclopentyl propylcarbamate] | 9.18 | –
36 | CCN(C)C(=O)O[C@@H]1CC[C@H](c2cc(NC(=O)Cc3ccno3)n[nH]2)C1 [Example 236, (1R,3S)-3-{3-[(1,2-oxazol-5-ylacetyl)amino]-1H-pyrazol-5-yl}cyclopentyl ethyl(methyl)carbamate] | 8.50 | –
37 | O=C(Cc1ccno1)Nc1cc([C@H]2CC[C@@H](OC(=O)NC3CCC3)C2)[nH]n1 [Example 458, (1R,3S)-3-{3-[(1,2-oxazol-5-ylacetyl)amino]-1H-pyrazol-5-yl}cyclopentyl cyclobutylcarbamate] | 8.51 | –
